molecular target: T1, Cys12 of the KRAS 4B G12C protein (Homo sapiens, UniProt P01116, G12C); experiment: In vitro covalent adduct formation (CAF) assay, LC-MS intact mass; type: binding; settings: 10 uM compound, 60 min
T1 construct: This protein contained 188 amino acids in total, including an N-terminal 6-Histidine tag; made in house; host or cells: E. coli BL21
How it was run: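 GDP-loaded (>95%) His-TEV-tagged KRAS 4B G12C (residues 1–169), 5 μM in TBS pH 7.4, incubated with 10 μM compound (4% DMSO) at 22° C for one hour. Intact-protein LC-MS gave free:adduct ratios, reported as percent protein modified; duplicate runs.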

Row | % CAF 10 uM @ 60 min [%] | Structure (SMILES)
1 | 80.9 | [2H]C([2H])=C([2H])C(=O)N1[C@H](C)CN(c2nc(=O)n3c4c(c(-c5ccc(F)cc5F)c(C(F)(F)F)cc24)SC[C@@H]3COC)C[C@@H]1C (atropisomer, axis not shown) [Example 1404, (3S,10S)-7-((3S,5R)-4-(acryloyl-d3)-3,5-dimethylpiperazin-1-yl)-10-(2,4-difluorophenyl)-3-(methoxymethyl)-9-(trifluoromethyl)-2,3-dihydro-5H-[1,4]thiazino[2,3,4-ij]quinazolin-5-one]
2 | 74.3 | C=CC(=O)N1C[C@H](C)N(c2nc(=O)n3c4c(c(-c5cc(Cl)c(F)cc5F)c(C(F)(F)F)cc24)SCC2(COC2)C3)C[C@H]1C [Example 1357a]
3 | 44.2 | C=CC(=O)N1[C@H](C)CN(c2nc(=O)n3c4c(c(-c5ccc(F)cc5)c(C(F)(F)F)cc24)SC[C@@H](CO)C3)C[C@@H]1C [Example 1398, (R)-8-((3S,5R)-4-acryloyl-3,5-dimethylpiperazin-1-yl)-11-(4-fluorophenyl)-3-(hydroxymethyl)-10-(trifluoromethyl)-3,4-dihydro-2H,6H-[1,4]thiazepino[2,3,4-ij]quinazolin-6-one]

test system: not listed separately; experiment: Determination of total drug concentration in rat brain (BBB penetration); type: in vivo; settings: male SD rat, 2 mg/kg IV infusion for 4 hours, brain collected at end of 4 hours
Experimental: BB. Example 9: Determination of Total Drug Concentration in Rat Brain
In Vivo Experimental Procedures
Infuse male SD rat at 2 mg/kg dose for 4 hours through IV administration route. Collect brain tissues at the end of 4 hours.
Sample Preparation Procedures
Dilute brain tissue by adding homogenization solvent (1:4, w/v). Homogenize diluted brain tissue samples. Extract analyte by adding organic solvent (1:4, v/v) with spiked internal standard. Vortex and centrifuge the samples. Remove supernatant and dilute with HPLC compatible solvent (1:3, v/v).
Inject diluted extract into LC-MS/MS system using reversed phase high performance liquid chromatography coupled with electrospray ionization and selected reaction monitoring. Determine the total drug concentration in brain samples by quantitating against the standard curve prepared using the same matrix.
The following data provides blood brain barrier (BBB) penetration activity for a selection of inventive compounds where were directly compared to sotorasib and adagrasib (concentration in brain measured in ng/g).
Compounds that were measured as having a total concentration in the brain of at least 60 ng/g are indicated as “+”.

Row | Structure (SMILES) | BBB activity
4 | C=CC(=O)N1[C@H](C)CN(c2nc(=O)n3c4c(c(-c5cc(Cl)c(F)cc5F)c(C(F)(F)F)cc24)SC[C@@H]3COCOC)C[C@@H]1C (atropisomer, axis not shown) [Example 13-62] | − (Compounds that did not meet this threshold are indicated as “−”)
5 | C=CC(=O)N1[C@H](C)CN(c2nc(=O)n3c4c(c(-c5ccc(F)cc5F)c(C(F)(F)F)cc24)SCC2(COC2)C3)C[C@@H]1C [Example 13-87] | − (Compounds that did not meet this threshold are indicated as “−”)
6 | C=CC(=O)N1CCN(c2nc(=O)n3c4c(c(-c5ccc(F)cc5F)c(C(F)(F)F)cc24)SCC3)[C@@H](C)C1 [Example 13-21] | + (Compounds that were measured as having a total concentration in the brain of at least 60 ng/g are indicated as “+”)
7 | C=CC(=O)N1CCN(c2nc(=O)n3c4c(c(-c5c(C)cc(F)cc5F)c(C(F)(F)F)cc24)SC[C@@H]3COC)CC1 [Example 13-16] | + (Compounds that were measured as having a total concentration in the brain of at least 60 ng/g are indicated as “+”)
8 | C=CC(=O)N1[C@H](C)CN(c2nc(=O)n3c4c(c(-c5cc(Cl)c(F)cc5F)c(C(F)(F)F)cc24)SC[C@@H]3COCOC)C[C@@H]1C [Example 13-50] | − (Compounds that did not meet this threshold are indicated as “−”)
9 | C=CC(=O)N1[C@H](C)CN(c2nc(=O)n3c4c(c(-c5cc(Cl)c(F)cc5F)c(C(F)(F)F)cc24)SC[C@@H]3CN2CCN(C3CC3)CC2)C[C@@H]1C [Example 13-28] | + (Compounds that were measured as having a total concentration in the brain of at least 60 ng/g are indicated as “+”)
10 | C=CC(=O)N1[C@H](C)CN(c2nc(=O)n3c4c(c(-c5cc(Br)c(F)cc5F)c(C(F)(F)F)cc24)SC[C@@H](Oc2cnccn2)C3)C[C@@H]1C [Example 13-42] | + (Compounds that were measured as having a total concentration in the brain of at least 60 ng/g are indicated as “+”)
11 | C=CC(=O)N1[C@H](C)CN(c2nc(=O)n3c4c(c(-c5ccc(F)cc5)c(C(F)(F)F)cc24)SC[C@@H](COC)C3)C[C@@H]1C [Example 13-65] | − (Compounds that did not meet this threshold are indicated as “−”)
12 | C=CC(=O)N1[C@H](C)CN(c2nc(=O)n3c4c(c(-c5cc(I)c(F)cc5F)c(C(F)(F)F)cc24)SC[C@@H]3COC)C[C@@H]1C (atropisomer, axis not shown) [Example 13-12] | + (Compounds that were measured as having a total concentration in the brain of at least 60 ng/g are indicated as “+”)
13 | C=CC(=O)N1C[C@H](C)N(c2nc(=O)n3c4c(c(-c5ccc(F)cc5F)c(Cl)cc24)SCC3)C[C@H]1C [Example 13-18] | + (Compounds that were measured as having a total concentration in the brain of at least 60 ng/g are indicated as “+”)

Reference: patent US20230107642A1 (Erasca, Inc., priority 2020, published 2023)
